By EC50 is commonly meant the concentration needed to bring the measured effect to its halfway point. For orientation: EC90 means the point of the concentration-response curve where the effect stands at 90%.

The structures appear in SMILES notation.

Experimental findings from ChEMBL document CHEMBL5661943, “ASAP - In vitro antiviral effect” (2024) are described below.

One assay deals with dengue virus type 2. As to the kind of experiment: Functional assay to measure dose dependent changes in antiviral-drug inhibitory efficacy against Dengue virus type 2 New Guinea C in Vero E6 miRFP670 cells (cotreated with P-gp inhibitor, CP100356). Cells are treated with antiviral candidates that are serially diluted, following infection, cells are fixed. EC50 is reported via analysis of fluorescence intensity using high-content imager. The …. The class given is organism-based, Chlorocebus sabaeus, Vero C1008. As to conditions: Dengue virus; for EC90: P-gp concentration 500 nM, P-gp inhibitor CP100356.

The test system of a further assay is Zika virus. As to the kind of experiment: Functional CPE-based assay to measure dose dependent changes in antiviral-drug inhibitory efficacy against Zika virus MR766 in Vero E6 miRFP670 cells (cotreated with P-gp inhibitor, CP100356). Cells are treated with antiviral candidates that are serially diluted. EC50 is reported via analysis of MTS assay as a readout of CPE. The assay has been performed by KU Leuven. Format: organism-based, Chlorocebus sabaeus, Vero C1008. Conditions: Zika virus. A general note: Formazan colour is commonly taken as a measure of viable cells.

As for `COc1cc(Br)cc(C(=O)Nc2ccc3c(c2)CNC3)c1`, the values for the EC50 with dengue virus type 2 (Vero C1008) and in the assay on Zika virus (Vero C1008) were greater than 25 µM and 12.8 µM, respectively. Moreover, the EC90 with dengue virus type 2 (Vero C1008, Baseline response 0 %, Hill slope -0.242, Maximum measured 88.855 %, Maximum response 100 %, Minimum measured 49.171 %, R squared 0.071) is greater than 25 µM; with Zika virus (Vero C1008, Baseline response 0 %, EC90 CI (lower) 14.493 uM, EC90 CI (upper) 28.879 uM, Hill slope 4.703, Maximum measured 104.946 %, Maximum response 100 %, Minimum measured 1.527 %, P-gp concentration 500 nM, R squared 0.964, P-gp inhibitor CP100356) it was 20.5 µM.
With `Cc1ncc(-c2cc(F)cc(C(=O)Nc3ccc4c(c3)CNC4)c2)o1`, the results for the EC50 with dengue virus type 2 (Vero C1008) and in the assay on Zika virus (Vero C1008) were 16.5 µM and greater than 6.25 µM, respectively. For the same compound, the EC90 was greater than 50 µM in the assay on dengue virus type 2 (Vero C1008, Baseline response 0 %, Hill slope -0.224, Maximum measured 78.762 %, Maximum response 100 %, Minimum measured 32.755 %, R squared 0.24) and greater than 6.25 µM with Zika virus (Vero C1008, Baseline response 0 %, Hill slope 1.881, Maximum measured 43.228 %, Maximum response 100 %, Minimum measured 5.06 %, P-gp concentration 500 nM, R squared 0.9, P-gp inhibitor CP100356).
Turning to `O=C(Nc1cc2c(cc1Br)CNC2)c1cc(Cl)cc2[nH]ncc12`, the EC50 in the assay on dengue virus type 2 (Vero C1008) is greater than 12.5 µM; in the assay on Zika virus (Vero C1008), 1.53 µM. Moreover, the EC90 with dengue virus type 2 (Vero C1008, Baseline response 0 %, Hill slope -0.294, Maximum measured 95.105 %, Maximum response 100 %, Minimum measured 44.86 %, R squared 0.086) was greater than 12.5 µM; with Zika virus (Vero C1008, Baseline response 0 %, EC90 CI (lower) 0.641 uM, EC90 CI (upper) 7.527 uM, Hill slope 6.115, Maximum measured 127.201 %, Maximum response 100 %, Minimum measured 6.803 %, P-gp concentration 500 nM, R squared 0.89, P-gp inhibitor CP100356), 2.2 µM.
For `O=C(Nc1ccc2c(c1)CN[C@H]2C[C@H](O)CO)c1cc(F)cc2[nH]ncc12`, the EC50 in the assay with dengue virus type 2 (Vero C1008) and with Zika virus (Vero C1008) was greater than 50 µM in each case. Besides, the EC90 with dengue virus type 2 (Vero C1008, Baseline response 0 %, Hill slope 0.494, Maximum measured 181.349 %, Maximum response 100 %, Minimum measured 67.92 %, R squared 0.043) is greater than 50 µM; in the assay with Zika virus (Vero C1008, Maximum measured 5.346 %, Minimum measured 2.665 %, P-gp concentration 500 nM, P-gp inhibitor CP100356), greater than 50 µM.
Regarding `O=C(Nc1ccc2c(c1)CNC2)c1cc(Cl)cc2[nH]c(-c3ccc(F)cc3O)nc12`, the EC50 is greater than 1.56 µM with dengue virus type 2 (Vero C1008) and greater than 0.781 µM in the assay on Zika virus (Vero C1008). Also, the EC90 in the assay with dengue virus type 2 (Vero C1008, Maximum measured 186.201 %, Minimum measured 124.759 %) is greater than 1.56 µM; with Zika virus (Vero C1008, Baseline response 0 %, Hill slope 0.819, Maximum measured -0.871 %, Maximum response 100 %, Minimum measured -1.788 %, P-gp concentration 500 nM, R squared 0.426, P-gp inhibitor CP100356) it was greater than 0.781 µM.
As to `O=C(NCC(F)F)[C@H](Nc1ccc2c(c1)CNC2)c1cc(F)cc2[nH]ccc12`, the EC50 in the assay with dengue virus type 2 (Vero C1008) and with Zika virus (Vero C1008) was greater than 50 µM in each case. The 90% effect concentration (EC90) is greater than 50 µM with dengue virus type 2 (Vero C1008, Maximum measured 207.16 %, Minimum measured 119.939 %) and greater than 50 µM in the assay with Zika virus (Vero C1008, Baseline response 0 %, Hill slope 0.152, Maximum measured 3.288 %, Maximum response 100 %, Minimum measured 0.363 %, P-gp concentration 500 nM, R squared 0.104, P-gp inhibitor CP100356).
In the case of `O=C(NCCC1CC1)[C@H](Nc1ccc2c(c1)CNC2)c1cc(Cl)cc(C2CC2)c1`, the EC50 in the assay with dengue virus type 2 (Vero C1008) was greater than 12.5 µM; in the assay with Zika virus (Vero C1008), 5.72 µM. Moreover, the EC90 is greater than 12.5 µM in the assay with dengue virus type 2 (Vero C1008, Baseline response 0 %, Hill slope -1.051, Maximum measured 118.853 %, Maximum response 100 %, Minimum measured 76.41 %, R squared 0.201) and greater than 6.25 µM in the assay with Zika virus (Vero C1008, Baseline response 0 %, Hill slope 7.335, Maximum measured 65.758 %, Maximum response 100 %, Minimum measured 0.052 %, P-gp concentration 500 nM, R squared 0.996, P-gp inhibitor CP100356).
Turning to `O=C(Nc1ccc2c(c1)CNC2)c1cc(F)cc(-c2cccnc2)c1`, the EC50 with dengue virus type 2 (Vero C1008) turned out to be 0.651 µM; with Zika virus (Vero C1008), 6.3 µM. In addition, the EC90 with dengue virus type 2 (Vero C1008, Baseline response 0 %, Hill slope -0.704, Maximum measured 60.172 %, Maximum response 100 %, Minimum measured 15.025 %, R squared 0.92) was greater than 12.5 µM; with Zika virus (Vero C1008, Baseline response 0 %, Hill slope 23.488, Maximum measured 123.724 %, Maximum response 100 %, Minimum measured 1.449 %, P-gp concentration 500 nM, R squared 0.923, P-gp inhibitor CP100356) it was 6.91 µM.
`O=C(Nc1cc(Br)c2c(c1)CNC2)c1cc(F)cc2[nH]ncc12`: the EC50 is greater than 50 µM in the assay with dengue virus type 2 (Vero C1008) and 1.56 µM in the assay on Zika virus (Vero C1008). In addition, the EC90 in the assay on dengue virus type 2 (Vero C1008, Baseline response 0 %, Hill slope -0.743, Maximum measured 120.32 %, Maximum response 100 %, Minimum measured 52.999 %, R squared 0.166) is greater than 50 µM; in the assay with Zika virus (Vero C1008, Baseline response 0 %, Hill slope 40.279, Maximum measured 114.894 %, Maximum response 100 %, Minimum measured 2.051 %, P-gp concentration 500 nM, R squared 0.957, P-gp inhibitor CP100356), 1.65 µM.
Regarding `CC1=C(c2cc(NC(=O)c3cc(Cl)cc4[nH]ncc34)cc3c2CNC3)CCC1=O`, the EC50 in the assay on dengue virus type 2 (Vero C1008) and with Zika virus (Vero C1008) was greater than 50 µM throughout. The EC90 in the assay on dengue virus type 2 (Vero C1008, Maximum measured 165.308 %, Minimum measured 53.221 %) was greater than 50 µM; in the assay on Zika virus (Vero C1008, Baseline response 0 %, Hill slope 0.456, Maximum measured 3.948 %, Maximum response 100 %, Minimum measured -0.924 %, P-gp concentration 500 nM, R squared 0.076, P-gp inhibitor CP100356), greater than 50 µM.
For `O=C(Nc1cc2c(c(C3=CC[C@H](O)CC3)c1)CNC2)c1cc(Cl)cc2[nH]ncc12`, the EC50 with dengue virus type 2 (Vero C1008) is greater than 50 µM; in the assay on Zika virus (Vero C1008), 46.6 µM. In addition, the EC90 in the assay with dengue virus type 2 (Vero C1008, Maximum measured 128.94 %, Minimum measured 80.48 %) was greater than 50 µM; in the assay on Zika virus (Vero C1008, Baseline response 0 %, Hill slope 3.698, Maximum measured 56.446 %, Maximum response 100 %, Minimum measured 0.896 %, P-gp concentration 500 nM, R squared 0.945, P-gp inhibitor CP100356), greater than 50 µM.
Consider `O=C(Nc1ccc2c(c1)CNC2)c1cc(Cl)cc2[nH]c(-c3cc(C4CC4)[nH]n3)nc12`, for which the EC50 with dengue virus type 2 (Vero C1008) is greater than 3.12 µM; with Zika virus (Vero C1008), greater than 0.781 µM. Further, the EC90 was greater than 3.12 µM in the assay with dengue virus type 2 (Vero C1008, Maximum measured 213.616 %, Minimum measured 78.099 %) and greater than 0.781 µM in the assay on Zika virus (Vero C1008, Baseline response 0 %, Hill slope 2.134, Maximum measured 7.792 %, Maximum response 100 %, Minimum measured 1.889 %, P-gp concentration 500 nM, R squared 0.797, P-gp inhibitor CP100356).
Turning to `O=C(Nc1ccc2c(c1)CN[C@H]2CCO)c1cc(F)cc2[nH]ncc12`, the EC50 in the assay on dengue virus type 2 (Vero C1008) and with Zika virus (Vero C1008) was greater than 50 µM each time. Besides, the EC90 in the assay with dengue virus type 2 (Vero C1008, Baseline response 0 %, Hill slope 0.366, Maximum measured 128.215 %, Maximum response 100 %, Minimum measured 81.639 %, R squared 0.156) is greater than 50 µM; in the assay on Zika virus (Vero C1008, Baseline response 0 %, Hill slope 1.133, Maximum measured 29.989 %, Maximum response 100 %, Minimum measured 0.147 %, P-gp concentration 500 nM, R squared 0.888, P-gp inhibitor CP100356), greater than 50 µM.
As for `C=CC[C@H]1NCc2cc(NC(=O)c3cc(F)cc4c3CC(=O)N4)ccc21`, the results for the EC50 in the assay with dengue virus type 2 (Vero C1008) and in the assay with Zika virus (Vero C1008) were greater than 50 µM and 8.05 µM, respectively. The EC90 in the assay on dengue virus type 2 (Vero C1008, Baseline response 0 %, Hill slope 1.022, Maximum measured 178.628 %, Maximum response 100 %, Minimum measured 80.7 %, R squared 0.039) is greater than 50 µM; with Zika virus (Vero C1008) it was 19.4 µM.
With `N#Cc1cccc(-c2nc3c(C(=O)Nc4ccc5c(c4)CNC5)cc(Cl)cc3[nH]2)c1`, the EC50 is greater than 50 µM in the assay with dengue virus type 2 (Vero C1008) and greater than 3.12 µM in the assay on Zika virus (Vero C1008). In addition, the EC90 in the assay on dengue virus type 2 (Vero C1008, Maximum measured 129.968 %, Minimum measured 100.984 %) was greater than 50 µM; in the assay on Zika virus (Vero C1008, Baseline response 0 %, Hill slope 0.859, Maximum measured 7.667 %, Maximum response 100 %, Minimum measured 0.919 %, P-gp concentration 500 nM, R squared 0.501, P-gp inhibitor CP100356) it was greater than 3.12 µM.
In the case of `O=C(Nc1ccc2c(c1)CNC2)c1cccc2cn[nH]c12`, the EC50 in the assay with dengue virus type 2 (Vero C1008) is 46.1 µM; in the assay with Zika virus (Vero C1008) it was greater than 50 µM. The EC90 was greater than 50 µM in the assay with dengue virus type 2 (Vero C1008, Baseline response 0 %, Hill slope -1.364, Maximum measured 96.577 %, Maximum response 100 %, Minimum measured 45.147 %, R squared 0.579) and greater than 50 µM with Zika virus (Vero C1008, Baseline response 0 %, Hill slope 0.311, Maximum measured 17.727 %, Maximum response 100 %, Minimum measured -4.778 %, P-gp concentration 500 nM, R squared 0.076, P-gp inhibitor CP100356).
On to `O=C(Nc1ccc2c(c1)CNC2)c1cc(F)cc(-c2cnc(C3CC3)s2)c1`, for which the EC50 in the assay on dengue virus type 2 (Vero C1008) is 11.6 µM; with Zika virus (Vero C1008), 5.37 µM. Moreover, the EC90 in the assay on dengue virus type 2 (Vero C1008, Baseline response 0 %, Hill slope -1.802, Maximum measured 130.062 %, Maximum response 100 %, Minimum measured 44.88 %, R squared 0.382) was greater than 12.5 µM; in the assay with Zika virus (Vero C1008, Baseline response 0 %, Hill slope 4.772, Maximum measured 67.326 %, Maximum response 100 %, Minimum measured 1.512 %, P-gp concentration 500 nM, R squared 0.988, P-gp inhibitor CP100356), greater than 6.25 µM.
Take `O=C(Nc1ccc2c(c1)CNC2)c1cc(Cl)cc2ccccc12`: the EC50 with dengue virus type 2 (Vero C1008) and with Zika virus (Vero C1008) was greater than 50 µM in each case. Further, the EC90 is greater than 50 µM in the assay with dengue virus type 2 (Vero C1008, Baseline response 0 %, Hill slope 0.531, Maximum measured 139.444 %, Maximum response 100 %, Minimum measured 57.429 %, R squared 0.178) and greater than 50 µM in the assay with Zika virus (Vero C1008, Baseline response 0 %, Hill slope -0.363, Maximum measured 9.094 %, Maximum response 100 %, Minimum measured -16.765 %, P-gp concentration 500 nM, R squared 0.057, P-gp inhibitor CP100356).
